Common to all, as to assay: Post-emergence herbicidal activity test (stem and leaf spray, pot culture)
What all share (format): in vivo
Common to all, as to conditions: 3 weeks after spraying

For assay [1], the system named is Trifoliumre pensL. Here is the method:
(1) Post-Emergence Stem and Leaf Spray Treatment: The weeds were cultivated in a 180 mm×140 mm plastic nutrient pot by a pot-culture method, placed in an enamel tray, and the plastic nutrient pots were filled with surface soil (⅘ of a depth) collected from a farmland and air-dried and sieved, and a soil humidity was controlled at 20% in the initial stage. Weed seeds with plump and uniform grains were selected, soaked in warm water at 25° C. for 6 h, and germinated in a biochemical incubator (dark) at 28° C. The freshly exposed weed seeds were evenly placed on the soil surface, and then covered with 0.5 cm to 1 cm of soil according to the size of the seeds. The weeds are cultivated in a controlled sunlight greenhouse at 20° C. to 30° C., under natural light, and a relative humidity of 57% to 72%. The soil was loam, including 1.63% of organic matters, with a pH value of 7, 84.3 mg/kg of alkaline nitrogen, 38.5 mg/kg of available phosphorus, and 82.1 mg/kg of available potassium. Each treatment was repeated 2 times, each treatment included 12 pots, and 20 weed seeds were sown in each pot. Pesticide was applied in the test for 1 time in total. When the weeds grew to 1.5- to 2-leaf stage, thinning was conducted, with 10 weeds in each pot, and 30 weeds were kept in each treatment. The cultivated weeds were placed on trays with an area of 0.1 m^2, and stems and leaves were sprayed with a sprayer. After applying a pesticide, the pesticide applied weeds were moved into a greenhouse for routine cultivation. 2 weeks after sowing, the test plants were treated at the 2- to 3-leaf stage: the compounds of the present disclosure for testing were dissolved in acetone separately, and added with Tween 80, an emulsifiable oil of 1.5 liters/ha methyl oleate was added as a synergist, and an obtained mixture was diluted with certain water to a certain concentration solution. The solution was sprayed onto the plants using a spray tower. After spraying, the weeds were cultivated in the greenhouse for 3 weeks, and the experimental effects on the weeds were counted. The effective concentrations of the compounds were 10 g/mu, 5 g/mu, and 2.5 g/mu, the experiment was repeated three times, and an average result was taken.

The test system of assay [2] is Setaria viridis. Here is the method:
(§1) The weeds were cultivated in a 180 mm×140 mm plastic nutrient pot by a pot-culture method, placed in an enamel tray, and the plastic nutrient pots were filled with surface soil (⅘ of a depth) collected from a farmland and air-dried and sieved, and a soil humidity was controlled at 20% in the initial stage. Weed seeds with plump and uniform grains were selected, soaked in warm water at 25° C. for 6 h, and germinated in a biochemical incubator (dark) at 28° C. The freshly exposed weed seeds were evenly placed on the soil surface, and then covered with 0.5 cm to 1 cm of soil according to the size of the seeds. The weeds are cultivated in a controlled sunlight greenhouse at 20° C. to 30° C., under natural light, and a relative humidity of 57% to 72%. The soil was loam, including 1.63% of organic matters, with a pH value of 7, 84.3 mg/kg of alkaline nitrogen, 38.5 mg/kg of available phosphorus, and 82.1 mg/kg of available potassium.
(§2) Each treatment was repeated 2 times, each treatment included 12 pots, and 20 weed seeds were sown in each pot. Pesticide was applied in the test for 1 time in total. When the weeds grew to 1.5- to 2-leaf stage, thinning was conducted, with 10 weeds in each pot, and 30 weeds were kept in each treatment.
(§3) The cultivated weeds were placed on trays with an area of 0.1 m^2, and stems and leaves were sprayed with a sprayer. After applying a pesticide, the pesticide applied weeds were moved into a greenhouse for routine cultivation.
(§4) 2 weeks after sowing, the test plants were treated at the 2- to 3-leaf stage: the compounds of the present disclosure for testing were dissolved in acetone separately, and added with Tween 80, an emulsifiable oil of 1.5 liters/ha methyl oleate was added as a synergist, and an obtained mixture was diluted with certain water to a certain concentration solution. The solution was sprayed onto the plants using a spray tower. After spraying, the weeds were cultivated in the greenhouse for 3 weeks, and the experimental effects on the weeds were counted. The effective concentrations of the compounds were 10 g/mu, 5 g/mu, and 2.5 g/mu, the experiment was repeated three times, and an average result was taken.
(§5) The activity level criteria for plant destruction (i.e. growth control rate) are as follows: • Grade 5: the growth control rate is greater than or equal to 85%; • Grade 4: the growth control rate is greater than or equal to 60% and less than 85%; • Grade 3: the growth control rate is greater than or equal to 40% and less than 60%; • Grade 2: the growth control rate is greater than or equal to 20% and less than 40%; • Grade 1: the growth control rate is greater than or equal to 5% and less than 20%; and • Grade 0: the growth control rate is less than 5%.
(§6) The growth control rate is a fresh weight control rate.

For assay [3], the system named is Abutilon theophrasti. Here is the method: as §1, §2, §3, §4, §5, §6
In assay [4] the test system is Echinochloa crusgalli. As to the method: as §1, §2, §3, §4, §5, §6
Assay [5] deals with Amaranthus retroflexus. As to the method:
as §1, §2, §3, §4, §5, §6

For assay [6], the system named is Portulaca oleracea. Here is the method: as §1, §2, §3, §4, §5, §6

In the case of “2-(4-chloro-2-fluoro-5-(2-oxo-2-(4-methyl)ethoxy)phenyl)-4,5,6,7-tetrahydro-1H-isoindole-1,3(2H)-dione [Compound C2]”, the “Post-emergence herbicidal activity, Trifoliumre pensL. (grade)” value in assay [1] (dosage 2.5 g/mu), in assay [1] (dosage 5 g/mu) and in assay [1] (dosage 10 g/mu) was 5 (Grade 5: the growth control rate is greater than or equal to 85%) each time. The “Post-emergence herbicidal activity, S. viridis (grade)” value was 2 (Grade 2: the growth control rate is greater than or equal to 20% and less than 40%) in assay [2] (dosage 2.5 g/mu); 3 (Grade 3: the growth control rate is greater than or equal to 40% and less than 60%) in assay [2] (dosage 5 g/mu); 4 (Grade 4: the growth control rate is greater than or equal to 60% and less than 85%) in assay [2] (dosage 10 g/mu). The “Post-emergence herbicidal activity, A. theophrasti (grade)” value in assay [3] (dosage 2.5 g/mu), in assay [3] (dosage 5 g/mu) and in assay [3] (dosage 10 g/mu) was 5 (Grade 5: the growth control rate is greater than or equal to 85%) throughout. Further, the “Post-emergence herbicidal activity, E. crusgalli (grade)” value in assay [4] (dosage 2.5 g/mu) is 1 (Grade 1: the growth control rate is greater than or equal to 5% and less than 20%); in assay [4] (dosage 5 g/mu), 2 (Grade 2: the growth control rate is greater than or equal to 20% and less than 40%); in assay [4] (dosage 10 g/mu), 3 (Grade 3: the growth control rate is greater than or equal to 40% and less than 60%). Further, the “Post-emergence herbicidal activity, A. retroflexus (grade)” value in assay [5] (dosage 2.5 g/mu), in assay [5] (dosage 5 g/mu) and in assay [5] (dosage 10 g/mu) was 5 (Grade 5: the growth control rate is greater than or equal to 85%) throughout. In addition, the “Post-emergence herbicidal activity, P. oleracea (grade)” value in assay [6] (dosage 2.5 g/mu), in assay [6] (dosage 5 g/mu) and in assay [6] (dosage 10 g/mu) was 5 (Grade 5: the growth control rate is greater than or equal to 85%) each time.

Regarding `O=C1C2=C(CCCC2)C(=O)N1c1cc(OCc2nc(-c3cccc(Cl)c3)no2)c(Cl)cc1F` [Compound A3], the “Post-emergence herbicidal activity, Trifoliumre pensL. (grade)” value is 4 (Grade 4: the growth control rate is greater than or equal to 60% and less than 85%) in assay [1] (dosage 2.5 g/mu); 5 (Grade 5: the growth control rate is greater than or equal to 85%) in assay [1] (dosage 5 g/mu); 5 (Grade 5: the growth control rate is greater than or equal to 85%) in assay [1] (dosage 10 g/mu). Also, the “Post-emergence herbicidal activity, S. viridis (grade)” value is 2 (Grade 2: the growth control rate is greater than or equal to 20% and less than 40%) in assay [2] (dosage 2.5 g/mu); 3 (Grade 3: the growth control rate is greater than or equal to 40% and less than 60%) in assay [2] (dosage 5 g/mu); 4 (Grade 4: the growth control rate is greater than or equal to 60% and less than 85%) in assay [2] (dosage 10 g/mu). Further, the “Post-emergence herbicidal activity, A. theophrasti (grade)” value in assay [3] (dosage 2.5 g/mu), in assay [3] (dosage 5 g/mu) and in assay [3] (dosage 10 g/mu) was 5 (Grade 5: the growth control rate is greater than or equal to 85%) each time. Besides, the “Post-emergence herbicidal activity, E. crusgalli (grade)” value in assay [4] (dosage 2.5 g/mu) is 1 (Grade 1: the growth control rate is greater than or equal to 5% and less than 20%); in assay [4] (dosage 5 g/mu), 2 (Grade 2: the growth control rate is greater than or equal to 20% and less than 40%); in assay [4] (dosage 10 g/mu), 3 (Grade 3: the growth control rate is greater than or equal to 40% and less than 60%). For the same compound, the “Post-emergence herbicidal activity, A. retroflexus (grade)” value in assay [5] (dosage 2.5 g/mu), in assay [5] (dosage 5 g/mu) and in assay [5] (dosage 10 g/mu) was 5 (Grade 5: the growth control rate is greater than or equal to 85%) in each case. Further, the “Post-emergence herbicidal activity, P. oleracea (grade)” value in assay [6] (dosage 2.5 g/mu) was 4 (Grade 4: the growth control rate is greater than or equal to 60% and less than 85%); in assay [6] (dosage 5 g/mu), 5 (Grade 5: the growth control rate is greater than or equal to 85%); in assay [6] (dosage 10 g/mu), 5 (Grade 5: the growth control rate is greater than or equal to 85%).

The values above are taken from patent US20240300932A1, “N-PHENYLIMINE DERIVATIVE AND PREPARATION METHOD AND USE THEREOF” (Guizhou University, priority 2023, published 2024).
